Results on one molecule are retold here after PMC11844072, “Novel 5,6-dichlorobenzimidazole derivatives as dual BRAFWT and BRAFV600E inhibitors: design, synthesis, anti-cancer activity and molecular dynamics simulations” (BMC Chemistry, 2025).

One test concerns HCC-2998. Briefly: NCI 60 single concentration growth inhibition. The conditions noted are these: Homo sapiens, HCC-2998, Colon cancer, read-out: GI%. Type of test: cell-based, human. The procedure, abridged: (§1)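 Single-dose screen at 10 µM across the NCI-60 panel, then five concentrations (10-fold or ½ log dilutions) for selected compounds. Cells in RPMI 1640, 5% FBS, 2 mM L-glutamine, preincubated 24 h, then drug exposure 48 h at 37 °C. TCA fixation, SRB stain read at 515 nm; percent growth calculated against time-zero and untreated controls.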

In a further test the test system is HOP-92. The test is described as follows: NCI 60 single concentration growth inhibition. Type of test: cell-based, human. The conditions noted are these: Homo sapiens, HOP-92, Non-small cell lung cancer, read-out: GI%. In a few lines: as §1
Another test has as its system DU-145. The test is described as follows: NCI 60 single concentration growth inhibition. Type of test: cell-based, human. Conditions: Homo sapiens, DU-145, Prostate cancer, read-out: GI%. The procedure, abridged:
as §1

The next test deals with NCI-H460. The test is described as follows: NCI 60 single concentration growth inhibition. Type of test: cell-based, human. The conditions noted are these: Homo sapiens, NCI-H460, Non-small cell lung cancer, read-out: GI%. The procedure, abridged:
as §1

The subject of a further test is TK-10. The test is described as follows: NCI 60 single concentration growth inhibition. Type of test: cell-based, human. Conditions: Homo sapiens, TK-10, Renal cancer, read-out: GI%. The procedure, abridged:
as §1

For a further test, the system named is HCT-15. The test is described as follows: NCI 60 single concentration growth inhibition. Type of test: cell-based, human. Conditions: Homo sapiens, HCT-15, Colon cancer, read-out: GI%. In a few lines:
as §1

The test system of another test is OVCAR-3. The test is described as follows: NCI 60 single concentration growth inhibition. The conditions noted are these: Homo sapiens, OVCAR-3, Ovarian cancer, read-out: GI%. Type of test: cell-based, human. The procedure, abridged:
as §1

A further test concerns SW-620. Briefly: NCI 60 single concentration growth inhibition. Type of test: cell-based, human. The conditions noted are these: Homo sapiens, SW-620, Colon cancer, read-out: GI%. In a few lines: as §1
A further test concerns NCI-H522. Briefly: NCI 60 single concentration growth inhibition. Type of test: cell-based, human. The conditions noted are these: Homo sapiens, NCI-H522, Non-small cell lung cancer, read-out: GI%. The procedure, abridged: as §1
The next test has as its system SNB-19. The test is described as follows: NCI 60 single concentration growth inhibition. Type of test: cell-based, human. The conditions noted are these: Homo sapiens, SNB-19, CNS cancer, read-out: GI%. The procedure, abridged:
as §1

A further test relates to U251. Briefly: NCI 60 single concentration growth inhibition. Type of test: cell-based, human. Conditions: Homo sapiens, U-251, U251, CNS cancer, read-out: GI%. In a few lines:
as §1

For another test, the system named is HT29. Briefly: NCI 60 single concentration growth inhibition. Type of test: cell-based, human. The conditions noted are these: Homo sapiens, HT-29, HT29, Colon cancer, read-out: GI%. In a few lines:
as §1

Another test relates to COLO 205. The test is described as follows: NCI 60 single concentration growth inhibition. Type of test: cell-based, human. Conditions: Homo sapiens, COLO 205, Colon cancer, read-out: GI%. The procedure, abridged:
as §1

In the next test the test system is LOX IMVIL. The test is described as follows: NCI 60 single concentration growth inhibition. Type of test: cell-based, human. The conditions noted are these: Homo sapiens, Melanoma, read-out: GI%. In a few lines:
as §1

A further test relates to K-562. Briefly: NCI 60 single concentration growth inhibition. Type of test: cell-based, human. Conditions: Homo sapiens, K562, K-562, Leukemia, read-out: GI%. In a few lines: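 Read-out is SRB absorbance at 515 nm after TCA fixation (10% for adherent lines, 16% for suspension lines). Drugs were applied for 48 h following a 24 h plating period. Growth percentages came from time-zero, control and treated absorbances.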

Another test has as its system OVCAR-4. Briefly: NCI 60 single concentration growth inhibition. The conditions noted are these: Homo sapiens, OVCAR-4, Ovarian cancer, read-out: GI%. Type of test: cell-based, human. The procedure, abridged:
as §1

For another test, the system named is NCI/ADR-RES. Briefly: NCI 60 single concentration growth inhibition. Type of test: cell-based, human. Conditions: Homo sapiens, Ovarian cancer, read-out: GI%. The procedure, abridged: as §1
The subject of test [1] is NCI 60 cancer cell line panel. The test is described as follows: NCI 60 single concentration growth inhibition, panel mean. Type of test: cell-based. The conditions noted are these: Homo sapiens, mean over NCI 60 panel, read-out: Mean GI%. The procedure, abridged:
as §1

Molecules are shown by their SMILES.

Consider `COC(=O)COc1ccc(C=NNC(=O)Cn2c(-c3ccc(OC)cc3)nc3cc(Cl)c(Cl)cc32)cc1OC` [Compound 10p, Methyl-2-(4-((2-(2-(5,6-dichloro-2-(4-methoxyphenyl)-1H-benzo[d]imidazol-1-yl)acetyl)hydrazono)methyl)-2-methoxyphenoxy)acetate], for which the inhibition at 10 µM is 86.1% in the test with HCC-2998; below 5% in the test on HOP-92; 143% in the test with DU-145; below 5% in the test on NCI-H460; 58% in the test with TK-10; 21.5% in the test with HCT-15. Also, the inhibition at 10 µM in the test with OVCAR-3 was below 5%; in the test on SW-620, below 5%; in the test on NCI-H522 it was 6.3%; in the test with SNB-19, below 5%; with U251, below 5%; in the test with HT29, 116%. Besides, the inhibition at 10 µM was 34.9% in the test on COLO 205; 25.2% in the test with LOX IMVIL; 12.3% with K-562; below 5% in the test on OVCAR-4; 5.42% with NCI/ADR-RES; 37.6% in test [1].
